Assay: Solubility of fluindapyr in test solvent at 140 g/L, crystal growth check after one week at 0° C.
Assay type: physicochemical
Parameters: key: PASS: A solution without crystal growth under the storage condition was considered a Pass
Description: In order to test the solubility of an active ingredient comprising an aminoindane amide active compound, fluindapyr was added into a test solvent at the concentration of 140 g/L under sufficient agitation. The test solvents were selected based on Hansen Solubility Parameters with a Relative Energy Difference (RED) of between 0.7 and 1.6. The completed dissolved solutions were further stored for one week at 0° C. to check if any crystals grew or not under the storage condition.

For `CC1CC(C)(C)c2c(F)ccc(NC(=O)c3cn(C)nc3C(F)F)c21` (centres unmarked) [fluindapyr], the Dissolution (solvent 2-ethylhexanol) was “FAIL”, the Dissolution (solvent N,N-dimethyldecanamide) was “PASS” and the Dissolution (solvent N-butyl acetate) was “FAIL”. The Dissolution (solvent N-heptane) was “FAIL”, the Dissolution (solvent O-dichlorobenzene) was “FAIL” and the Dissolution (solvent POWERBLOX SV-17) was “FAIL”. The Dissolution (solvent acetonitrile) was “FAIL”, the Dissolution (solvent dibutyl ether) was “FAIL” and the Dissolution (solvent diethylene glycol monoethyl ether) was “PASS”. For the same compound, the Dissolution (solvent diethylene glycol monomethyl ether) was “PASS”, the Dissolution (solvent diethylene glycol n-butyl ether acetate) was “FAIL” and the Dissolution (solvent diisobutyl ketone) was “FAIL”. For the same compound, the Dissolution (solvent dimethyl formamide) was “FAIL”, the Dissolution (solvent dipropylene glycol methyl ether acetate) was “FAIL” and the Dissolution (solvent dipropylene glycol n-butyl ether) was “FAIL”. The Dissolution (solvent dipropylene glycol n-propyl ether) was “FAIL”, the Dissolution (solvent dipropyleneglycol phenyl ether) was “FAIL” and the Dissolution (solvent ethoxytriglycol) was “FAIL”. For the same compound, the Dissolution (solvent ethylene glycol monobutyl ether) was “FAIL”, the Dissolution (solvent ethylene glycol n-butyl ether acetate) was “FAIL” and the Dissolution (solvent ethylene glycol phenyl ether) was “FAIL”. The Dissolution (solvent isobutyl heptyl ketone) was “FAIL”, the Dissolution (solvent methyl alcohol) was “FAIL” and the Dissolution (solvent methyl ethyl ketone) was “FAIL”. The Dissolution (solvent methyl isobutyl ketone) was “FAIL”, the Dissolution (solvent perchloroethylene) was “FAIL” and the Dissolution (solvent propylene carbonate) was “FAIL”. The Dissolution (solvent propylene glycol) was “FAIL”, the Dissolution (solvent propylene glycol diacetate) was “FAIL” and the Dissolution (solvent propylene glycol monomethyl ether acetate) was “FAIL”. The Dissolution (solvent propylene glycol n-butyl ether) was “FAIL”, the Dissolution (solvent propylene glycol phenyl ether) was “FAIL” and the Dissolution (solvent tetrahydrofuran) was “FAIL”. The Dissolution (solvent toluene) was “FAIL” and the Dissolution (solvent tripropylene glycol n-butyl ether) was “FAIL”.
